Test [1] relates to small-intestinal enzyme liquid. In words: Decomposition of a saccharide alone (control solution) by small-intestinal enzyme liquid. It is filed as biochemical, rat. Conditions: 5% saccharide alone; for Liberated galactose concentration: Test Example 3. As for the experimental part:
(§1) Palatinose (trade name: Palatinose IC, ex Shin Mitsui Sugar Co., Ltd.) (test sample) was used as a sample for investigating each enzyme activity inhibitory effect. Maltose and sucrose were used as substrates for maltase and sucrose, respectively. The test sample and the substrates were dissolved in 0.1 M phosphate buffer (pH 6.8) at the concentration shown in Table 1 below to prepare test solutions (Solutions 4 and 5). Also, the test sample or the substrates were dissolved in 0.1 M phosphate buffer (pH 6.8), respectively to at the concentration shown in Table 1 below to prepare control solutions (Solution 1 for the test sample and Solutions 2 and 3 for the substrates).
(§2) Two grams of rat small-intestinal acetone powder (ex Sigma Corporation) were dissolved in 20 ml of 0.1 M phosphate buffer (pH 6.8), left standing one day at 5° C., and subsequently subjected to centrifugal separation (8000 rpm×15 min.). The supernatant was filtered through a 0.8 μm membrane filter to obtain a small-intestinal enzyme liquid. This liquid contained a mixture of enzymes present in small intestine, such as sucrose, glucoamylase, maltase, and isomaltase.
(§3) Each 0.25 ml of the small-intestinal enzyme liquid was added to each 5 ml of Solutions 1 through 5 and placed in a water bath at 37° C. to allow them to react for 60 min. while shaken at 60 strokes/min. After the reaction, they were heated in a boiling water bath for 3 min. for inactivation of the enzymes.
(§4) The glucose concentration in each solution after the reaction was measured using the F-kit Glucose (ex Roche). A liberated glucose concentration (g/l) was calculated by subtracting the blank value (0.1 M phosphate buffer alone) and the concentration of glucose originally contained in the test sample from each glucose concentration measured.
The fructose concentration was measured using the F-kit Fructose (ex Roche). The liberated fructose concentration, g/l, was obtained by subtracting the blank value (0.1 M phosphate buffer alone) from the resultant fructose concentration.
(§5) The procedures in Example 1 were repeated with the exception that palatinit, palatinose or isomaltose was used as a test sample and lactose was used as a substrate. The test samples and the substrate were dissolved in 0.1 M phosphate buffer (pH 6.8) to attain the concentration shown in Table 5 to thereby prepare three test solutions. Besides, each of the test samples or the substrate was dissolved in 0.1 M phosphate buffer (pH 6.8) to attain the concentration shown in Table 5 to thereby prepare control solutions. Each 5 ml of the aforementioned test solutions and the control solutions was subjected to the enzymatic reaction according to the same procedures as in Example 1. The glucose concentration, the fructose concentration and the galactose concentration were measured. The galactose concentration was measured using F-kit Galactose (ex Roche). The liberated galactose concentration, g/l, was calculated by subtracting the blank value (0.1 M phosphate buffer alone) from the measured galactose concentration.

The target in another test is T1, sucrase (Rattus norvegicus, UniProt P23739).
T1 construct: This liquid contained a mixture of enzymes present in small intestine, such as sucrose, glucoamylase, maltase, and isomaltase; tissue Sigma Corporation; host or cells: rat small intestine (acetone powder), buffer extract, unpurified
T1 sequence (P23739 whole entry): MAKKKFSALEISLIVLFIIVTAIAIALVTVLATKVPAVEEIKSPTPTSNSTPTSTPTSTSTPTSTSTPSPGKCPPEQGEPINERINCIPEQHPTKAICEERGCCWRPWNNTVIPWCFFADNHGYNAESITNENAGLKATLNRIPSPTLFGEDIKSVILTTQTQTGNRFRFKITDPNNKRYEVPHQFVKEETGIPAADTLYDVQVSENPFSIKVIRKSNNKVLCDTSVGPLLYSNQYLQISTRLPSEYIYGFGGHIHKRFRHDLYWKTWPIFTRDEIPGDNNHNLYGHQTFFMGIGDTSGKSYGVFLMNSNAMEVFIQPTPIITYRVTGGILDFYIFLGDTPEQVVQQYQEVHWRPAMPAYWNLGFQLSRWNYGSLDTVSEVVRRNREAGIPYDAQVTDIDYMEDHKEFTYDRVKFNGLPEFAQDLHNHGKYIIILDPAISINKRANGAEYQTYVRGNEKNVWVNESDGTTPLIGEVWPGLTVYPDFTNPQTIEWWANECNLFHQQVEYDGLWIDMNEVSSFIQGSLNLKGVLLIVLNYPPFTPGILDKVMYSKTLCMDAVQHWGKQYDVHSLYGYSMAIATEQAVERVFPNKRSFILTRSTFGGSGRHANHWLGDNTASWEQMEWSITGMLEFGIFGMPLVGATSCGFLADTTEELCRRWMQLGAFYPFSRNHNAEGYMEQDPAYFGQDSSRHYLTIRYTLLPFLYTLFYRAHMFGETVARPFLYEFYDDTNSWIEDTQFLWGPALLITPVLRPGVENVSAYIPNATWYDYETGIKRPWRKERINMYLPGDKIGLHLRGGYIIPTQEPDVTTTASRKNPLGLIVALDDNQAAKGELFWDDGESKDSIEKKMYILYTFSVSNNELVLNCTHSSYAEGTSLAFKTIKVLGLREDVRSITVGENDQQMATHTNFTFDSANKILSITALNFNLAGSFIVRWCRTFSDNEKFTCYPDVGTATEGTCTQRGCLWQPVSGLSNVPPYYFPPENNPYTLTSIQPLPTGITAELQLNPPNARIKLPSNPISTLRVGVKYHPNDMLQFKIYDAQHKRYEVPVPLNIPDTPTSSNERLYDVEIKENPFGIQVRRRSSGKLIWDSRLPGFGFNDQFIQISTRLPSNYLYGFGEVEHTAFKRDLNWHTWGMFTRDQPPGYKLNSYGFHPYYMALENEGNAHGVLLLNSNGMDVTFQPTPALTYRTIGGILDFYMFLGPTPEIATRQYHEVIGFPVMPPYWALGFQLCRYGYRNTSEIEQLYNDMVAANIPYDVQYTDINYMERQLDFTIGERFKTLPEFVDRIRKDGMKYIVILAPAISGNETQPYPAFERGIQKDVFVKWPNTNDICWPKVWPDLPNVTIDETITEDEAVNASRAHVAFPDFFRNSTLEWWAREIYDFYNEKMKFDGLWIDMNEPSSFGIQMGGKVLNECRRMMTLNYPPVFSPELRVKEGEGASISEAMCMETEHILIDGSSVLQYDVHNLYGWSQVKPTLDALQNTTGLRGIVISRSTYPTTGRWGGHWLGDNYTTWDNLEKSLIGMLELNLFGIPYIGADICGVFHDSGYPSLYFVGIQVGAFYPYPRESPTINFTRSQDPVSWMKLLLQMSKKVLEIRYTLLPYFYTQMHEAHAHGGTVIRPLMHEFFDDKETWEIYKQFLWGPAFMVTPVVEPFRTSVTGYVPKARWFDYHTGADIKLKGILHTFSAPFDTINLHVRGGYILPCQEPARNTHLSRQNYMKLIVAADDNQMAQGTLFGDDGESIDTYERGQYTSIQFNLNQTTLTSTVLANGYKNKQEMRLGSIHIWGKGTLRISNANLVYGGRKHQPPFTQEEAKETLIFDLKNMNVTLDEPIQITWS
The experiment in a line: Sucrase activity inhibition with rat small-intestinal enzyme liquid, substrate sucrose. The format is biochemical. As for the experimental part: as §1, §2, §3, §4
(§6) Next, each of the liberated glucose concentration was input in the following equation to obtain decomposition inhibition ratio for maltase and sucrose. In the present tests, the substrates and the inhibitors were decomposed by enzymes present in the small-intestinal enzyme liquid. However, the enzymes decomposing the substrates are different from the enzymes decomposing the inhibitors. The decomposition inhibition ratio was determined as a measure for the inhibitory effect. When the inhibitor was added, the glucose concentration was lower than that seen when the substrate alone was reacted. A higher decomposition inhibition ratio means a stronger inhibitory effect.
(§7) Decomposition inhibition ratio,%={(A+B)−(AB)}+(A+B)×100 [Equation 1]
(§8) wherein (A+B) indicates a sum of a liberated glucose concentration in the control solution containing the test sample alone after the reaction (A) and a liberated glucose concentration in the control solution containing the substrate alone after the reaction (B); and (AB) indicates a liberated glucose concentration in the test solution containing the test sample (A) and the substrate (B), after the reaction.
The procedures in Example 1 were repeated with the exception that the test solutions contained 5% of sucrose and 0.5%, 1.0%, 3.0% or 5.0% of palatinose to examine intensity of the sucrose activity inhibition. A control solution contained 5% of sucrose in 0.1 M phosphate buffer (pH 6.8).
The procedures in Example 1 were repeated with the exception that palatinit and palatinose were used as test samples and sucrose was used as a substrate. The test samples and the substrate were dissolved in 0.1 M phosphate buffer (pH 6.8) to attain the concentration shown in Table 3 to thereby prepare two test solutions. Besides, each one of the test samples or the substrate was dissolved in 0.1 M phosphate buffer (pH 6.8) to attain the concentration shown in Table 3 to thereby prepare control solutions. Each 5 ml of the aforementioned test solutions or the control solutions was subjected to the enzymatic reaction according to the same procedures as in Example 1. The glucose concentration and the fructose concentration were measured. […]

The next test has as its system glucoamylase. The experiment in a line: Glucoamylase activity inhibition with rat small-intestinal enzyme liquid, substrate soluble starch. It is filed as biochemical. Conditions: 5% soluble starch + 5% test sample. As for the experimental part: as §2, §3, §4, §6, §7, §8
The procedures in Example 1 were repeated with the exception that palatinose and palatinit were used as a test sample and soluble starch was used as a substrate. The test samples and the substrate were dissolved in 0.1 M phosphate buffer (pH 6.8) to attain the concentration shown in Table 6 to thereby prepare two test solutions. Besides, each of the test samples or the substrate was dissolved in 0.1 M phosphate buffer (pH 6.8) to attain the concentration shown in Table 6 to thereby prepare control solutions. Each 5 ml of the aforementioned test solutions and the control solutions was subjected to the enzymatic reaction according to the same procedures as in Example 1 and the liberated glucose concentration and the decomposition inhibition ratio were measured.
The procedures in Example 1 were repeated with the exception that trehalulose was used as a test sample and soluble starch was used as a substrate. The test sample and the substrate were dissolved in 0.1 M phosphate buffer (pH 6.8) to attain the concentration shown in Table 9 to thereby prepare a test solution. Besides, the test sample or the substrate was dissolved in 0.1 M phosphate buffer (pH 6.8) to attain the concentration shown in Table 9 to thereby prepare control solutions. Each 5 ml of the aforementioned test solution and the control solutions was subjected to the enzymatic reaction according to the same procedures as in Example 1 and the liberated glucose concentration and the decomposition inhibition ratio were measured.
The procedures in Example 1 were repeated with the exception that trehalose was used as a test sample and soluble starch was used as a substrate. […]

The next test has as its target T2, lactase (Rattus norvegicus, UniProt Q02401).
T2 construct: tissue Sigma Corporation; host or cells: rat small intestine (acetone powder), buffer extract, unpurified
T2 sequence (Q02401 868-1928): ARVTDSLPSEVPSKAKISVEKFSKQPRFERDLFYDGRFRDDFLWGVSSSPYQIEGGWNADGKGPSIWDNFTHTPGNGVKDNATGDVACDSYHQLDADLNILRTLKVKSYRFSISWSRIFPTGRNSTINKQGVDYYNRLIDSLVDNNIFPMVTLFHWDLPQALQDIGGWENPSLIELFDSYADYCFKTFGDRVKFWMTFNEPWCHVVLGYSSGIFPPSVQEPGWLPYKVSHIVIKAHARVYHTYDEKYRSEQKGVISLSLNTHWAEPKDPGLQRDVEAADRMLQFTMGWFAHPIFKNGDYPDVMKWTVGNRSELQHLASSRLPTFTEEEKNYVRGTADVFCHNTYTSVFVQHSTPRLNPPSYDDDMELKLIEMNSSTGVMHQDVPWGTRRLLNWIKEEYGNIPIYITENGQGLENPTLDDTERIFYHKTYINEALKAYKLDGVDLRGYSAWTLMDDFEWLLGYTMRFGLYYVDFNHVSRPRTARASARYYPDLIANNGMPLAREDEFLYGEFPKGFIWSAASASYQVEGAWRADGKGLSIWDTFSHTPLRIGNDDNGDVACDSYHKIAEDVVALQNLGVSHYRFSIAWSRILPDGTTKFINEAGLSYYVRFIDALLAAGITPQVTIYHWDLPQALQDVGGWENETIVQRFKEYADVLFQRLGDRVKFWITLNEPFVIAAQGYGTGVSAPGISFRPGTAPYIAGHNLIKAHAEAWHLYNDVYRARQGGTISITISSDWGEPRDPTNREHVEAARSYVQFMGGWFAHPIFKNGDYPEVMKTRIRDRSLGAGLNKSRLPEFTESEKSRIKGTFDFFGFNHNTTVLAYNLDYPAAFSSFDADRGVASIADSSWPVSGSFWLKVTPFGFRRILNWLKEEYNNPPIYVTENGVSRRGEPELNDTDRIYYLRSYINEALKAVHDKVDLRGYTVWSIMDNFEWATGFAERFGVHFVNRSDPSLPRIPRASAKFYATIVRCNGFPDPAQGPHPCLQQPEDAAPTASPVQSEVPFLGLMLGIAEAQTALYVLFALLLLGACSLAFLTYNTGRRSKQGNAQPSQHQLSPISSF
The experiment in a line: Lactase activity inhibition with rat small-intestinal enzyme liquid, substrate lactose. It is filed as biochemical. Conditions: 5% lactose + 5% test sample. As to the method:
as §2, §3, §4, §6, §7, §8, §5

[2] abbreviates: 5% sucrose + 5% test sample, Example 5 / Test Example 4.
The mark [3] stands for this setting: 5% sucrose + 5% test sample, Example 3 / Test Example 2.

As to `OC[C@H]1O[C@H](O[C@H]2[C@H](O)[C@@H](O)[C@H](O)O[C@@H]2CO)[C@H](O)[C@@H](O)[C@@H]1O` [maltose], the Liberated glucose concentration in test [1] (37° C., 60 min, pH 6.8, Example 1 / Test Example 1) was determined as 4.956 ± 0.423 g/L.

On to `OC[C@H]1O[C@@H](O[C@H]2[C@H](O)[C@@H](O)C(O)O[C@@H]2CO)[C@H](O)[C@@H](O)[C@H]1O` (stereo partly drawn) [lactose], for which, in test [1] (Example 3 / Test Examples 2, 3), the Liberated fructose concentration turned out to be 0.00 g/L and the Liberated glucose concentration amounted to 0.23 g/L. The Liberated galactose concentration in test [1] came to 0.16 g/L.

For `OC[C@H]1O[C@H](O[C@H]2O[C@H](CO)[C@@H](O)[C@H](O)[C@H]2O)[C@H](O)[C@@H](O)[C@@H]1O` [trehalose, reference compound], the “Sucrase activity inhibitory effect (in words)” value on sucrase (5% sucrose + 5% test sample) is given as “substantially no sucrose activity inhibitory effect”. Also, at sucrase (setting [2]), the “Decomposition inhibition ratio, %, against sucrase” value came to 49%. Moreover, the Liberated glucose concentration on sucrase (setting [2]) was 1.683 g/L; in the test with glucoamylase (Example 6 / Test Example 5), 2.349 g/L; in test [1] (Example 5 / Test Example 4, sucrase activity inhibition test), 1.656 g/L; in test [1] (Example 6 / Test Example 5, glucoamylase activity inhibition test), 0.333 g/L. Further, in the test on glucoamylase, the “Glucoamylase activity inhibitory effect (in words)” value is on record as “has a glucoamylase activity inhibitory effect, but the effect is very weak”. Further, the “Decomposition inhibition ratio, %, against glucoamylase” value in the test with glucoamylase (Example 6 / Test Example 5) was 14%.

`OC[C@H]1O[C@H](OC[C@H]2OC(O)[C@H](O)[C@@H](O)[C@@H]2O)[C@H](O)[C@@H](O)[C@@H]1O` (stereo partly drawn) [isomaltose, reference compound]: on sucrase (5% sucrose + 5% isomaltose), the “Total concentration of liberated monosaccharides (glucose + fructose)” value turned out to be 2.88 g/L. Also, the “Sucrase activity inhibitory effect (in words)” value on sucrase (5% sucrose + 5% test sample) is listed as “has a sucrose activity inhibitory effect”. For the same compound, at sucrase (setting [3]), the “Decomposition inhibition ratio, %, against sucrase” value stood at 31%; the Liberated fructose concentration stood at 0.70 g/L; the Liberated glucose concentration amounted to 2.18 g/L. On lactase, the “Decomposition inhibition ratio, %, against lactase” value is given as −1%; the “Lactase activity inhibitory effect (in words)” value was “no lactose inhibitory effect was appreciable”; the Liberated fructose concentration stood at 0.00 g/L; the Liberated galactose concentration was found to be 0.06 g/L. The Liberated glucose concentration at lactase is 2.41 g/L. Also, in test [1] (Example 3 / Test Examples 2, 3), the Liberated fructose concentration is 0.02 g/L and the Liberated glucose concentration is 2.14 g/L. Moreover, in test [1], the Liberated galactose concentration was 0.00 g/L.

In the case of soluble starch, the Liberated glucose concentration in test [1] (Example 4) amounted to 4.657 g/L; in test [1] (Example 6 / Test Example 5), 2.400 g/L.

For the origin of these results see US20080206311A1, “Sucrase Activity Inhibitor, Glucoamylase Activity Inhibitor and Food and Feed Containing the Same” (MITSUI SUGAR CO., LTD., priority 2005, published 2008).
